Data published in patent US6790866B2, “Sulfonamide and carboxamide derivatives and drugs containing the same as the active ingredient” (Ono Pharmaceutical Co., Ltd., priority 1996, dated 2004).

Target: T1, prostanoid receptor subtype (mouse EP1) (Mus musculus, UniProt P35375)
T1 construct: expressed in transfected cells; host or cells: CHO cells (membrane fraction)
T1 sequence (P35375 1-405): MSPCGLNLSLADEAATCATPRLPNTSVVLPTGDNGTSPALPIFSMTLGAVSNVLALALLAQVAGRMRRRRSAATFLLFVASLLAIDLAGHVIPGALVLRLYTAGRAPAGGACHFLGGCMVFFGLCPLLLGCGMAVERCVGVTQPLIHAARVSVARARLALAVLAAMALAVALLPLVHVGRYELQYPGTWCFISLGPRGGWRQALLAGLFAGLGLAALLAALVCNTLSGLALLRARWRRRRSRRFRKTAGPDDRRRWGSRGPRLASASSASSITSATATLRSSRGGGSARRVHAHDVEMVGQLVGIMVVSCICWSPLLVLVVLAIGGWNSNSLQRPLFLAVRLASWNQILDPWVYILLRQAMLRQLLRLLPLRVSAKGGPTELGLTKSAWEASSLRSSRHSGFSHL
Assay: Binding assay using expression cell of prostanoid receptor subtype (3H-PGE2 competition, CHO cell membrane fraction)
Conditions: membrane fraction of CHO cell expressing mouse EP1; 3H-PGE2 2.5 nM; Ki=IC50/(1+([C]/Kd)); read-out: dissociation constant Ki
Method: (i) Binding Assay Using Expression Cell of Prostanoid Receptor Subtype
The preparation of membrane fraction was carried out according to the method of Sugimoto et al (J. Biol. Chem. 267, 6463-6466 (1992)), using expression CHO cell of prostanoid receptor subtype (mouse EP1).
The standard assay mixture contained membrane fraction (0.5 mg/ml), ^3H-PGE2 in a final volume of 200 μl was incubated for 1 hour at room temperature. The reaction was terminated by addition of 3 ml of ice-cold buffer. The mixture was rapidly filtered through a glass filter (GF/B). The radioactivity associated with the filter was measured by liquid scintillation counting.
Kd and Bmax values were determined from Scratchard plots (Ann. N.Y. Acad. Sci. 51, 660 (1949)). Non-specific binding was calculated as the bond in the presence of an excess (2.5 μM) of unlabeled PGE2. In the experiment for competition of specific ^3H-PGE2 was added at a concentration of 2.5 nM and the compound of the present invention was added at a various concentration. The following buffer was used in all reaction.
Buffer: potassium phosphate (pH6.0, 10 mM), EDTA (1 mM), MgCl2 (10 mM), NaCl (0.1M).
The dissociation constant Ki (μM) of each compound was calculated by the following equation.

| SMILES | Ki |
| --- | --- |
| O=C(O)c1ccc(NC(=O)c2cc(Br)ccc2NS(=O)(=O)c2ccc(Cl)cc2)cc1 [2(k), 4-[2-(4-chlorophenylsulfonylamino)-5-bromobenzoylamino]benzoic acid] | 99 nM |
| O=C(O)c1ccc(COc2cc(C(F)(F)F)ccc2N(C2CCCC2)S(=O)(=O)c2ccccc2)cc1 [18(30), 4-[2-(N-cyclopentyl-phenylsulfonylamino)-5-trifluoromethylphenoxymethyl]benzoic acid] | 1.6 nM |
| CC(C)N(c1ccc(C(F)(F)F)cc1OC[C@H]1CC[C@H](C(=O)O)CC1)S(=O)(=O)c1ccccc1 [18(38), trans-4-[2-(N-isopropyl-phenylsulfonylamino)-5-trifluoromethylphenoxymethyl]cyclohexanoic acid] | 16 nM |
| CC(C)N(c1ccc(Cl)cc1OCc1ccc(C(=O)O)cc1)S(=O)(=O)c1cccs1 [18(58), 4-[2-(N-isopropyl-2-thienylsulfonylamino)-5-chlorophenoxymethyl]benzoic acid] | 6.2 nM |
| CCCS(=O)(=O)N(Cc1ccccc1)c1ccc(C)cc1OCc1ccc(C(=O)O)cc1 [18(75), 4-[2-(N-benzyl-propylsulfonylamino)-5-methylphenoxymethyl]benzoic acid] | 5.4 nM |
| CC(C)CN(c1ccc(C(F)(F)F)cc1OCc1ccc(/C=C/C(=O)O)cc1)S(=O)(=O)c1ccco1 [18(94), 4-[2-(N-isobutyl-2-furanylsulfonylamino)-5-trifluoromethylphenoxymethyl]cinnamic acid] | 0.4 nM |
| CCN(c1ccc(C(F)(F)F)cc1OCc1ccc(/C=C/C(=O)O)cc1)S(=O)(=O)c1ccccc1 [18(102), 4-[2-(N-ethyl-phenylsulfonylamino)-5-trifluoromethylphenoxymethyl]cinnamic acid] | 0.2 nM |
| Cc1ccc(N(C(C)C)S(=O)(=O)CC2CCCC2)c(OCc2ccc(C(=O)O)cc2)c1 [20(20), 4-[2-(N-isopropyl-cyclopentylmethylsulfonylamino)-5-methylphenoxymethyl]benzoic acid] | 9.9 nM |
| O=C(O)c1ccc(COc2cc(Cl)ccc2NS(=O)(=O)c2ccccc2)nc1 [22(3), 6-(2-phenylsulfonylamino-5-chlorophenoxymethyl)nicotinic acid] | 480 nM |
| CC(C)N(c1ccc(Cl)cc1OCc1ccc(C(=O)O)o1)S(=O)(=O)c1ccccc1 [24(9), 5-[2-(N-isopropyl-phenylsulfonylamino)-5-chlorophenoxymethyl]furan-2-carboxylic acid] | 18 nM |
| CC(C)N(c1ccc(C(F)(F)F)cc1OCc1ccc(OCC(=O)O)cc1)S(=O)(=O)c1ccccc1 [Example 24, 4-[2-(N-isopropyl-phenylsulfonylamino)-5-trifluoromethylphenoxymethyl]phenoxy acetic acid] | 5.8 nM |

Next, values leading:

| Ki | SMILES |
| --- | --- |
| 73 nM | CC(C)N(c1ccc(C(F)(F)F)cc1N(C)Cc1ccc(C(=O)O)cc1)S(=O)(=O)c1ccccc1 [Example 30, 4-[N-methyl-[2-(N-isopropyl-phenylsulfonylamino)-5-trifluoromethylphenyl]aminomethyl]benzoic acid] |
| 160 nM | O=C(O)c1ccc(COc2ncc(C(F)(F)F)cc2NS(=O)(=O)c2ccccc2)cc1 [Example 38, 4-(3-phenylsulfonylamino-5-trifluoromethylpyridine-2-yloxymethyl)benzoic acid] |
| 380 nM | O=C(O)c1ccc(COc2cc(Cl)ccc2CNS(=O)(=O)c2ccccc2)cc1 [Example 43, 4-(2-phenylsulfonylaminomethyl-5-chlorophenoxymethyl)benzoic acid] |
| 1.3 nM | CC(C)N(c1ccc(C(F)(F)F)cc1OCc1ccc(C#CC(=O)O)cc1)S(=O)(=O)c1ccccc1 [Example 44, 4-[2-(N-isopropyl-phenylsulfonylamino)-5-trifluoromethylphenoxymethyl]phenylpropiolic acid] |
| 10 nM | CC(C)N(c1ccc(C(F)(F)F)cc1/C=C/c1ccc(C(=O)O)cc1)S(=O)(=O)c1ccccc1 [Example 48, 4-[2-[2-(N-isopropyl-phenylsulfonylamino)-5-trifluoromethylphenyl]-(E)-vinyl]benzoic acid] |
